Measurements taken from the NIST ThermoML archive (doi:10.1021/je060271a).
Numbers after ± are expanded uncertainties.

Details: 323.14 K, Liquid, Vibrating tube method

CCCC(=O)OCC(COC(=O)CCC)(COC(=O)CCC)COC(=O)CCC [pentaerythritol tetrabutyrate]
mass density (17664 kPa): 1037.3 ± 1.2 kg/m3
mass density (17706 kPa): 1037.2 ± 1.3 kg/m3
mass density (17742 kPa): 1037.4 ± 1.2 kg/m3
mass density (17779 kPa): 1037.3 ± 1.2 kg/m3
mass density (17823 kPa): 1037.3 ± 1.2 kg/m3
mass density (17860 kPa): 1037.3 ± 1.2 kg/m3
mass density (17896 kPa): 1037.3 ± 1.2 kg/m3
mass density (17933 kPa): 1037.5 ± 1.2 kg/m3
mass density (17977 kPa): 1037.4 ± 1.2 kg/m3
mass density (18014 kPa): 1037.5 ± 1.2 kg/m3
mass density (18060 kPa): 1037.4 ± 1.2 kg/m3
mass density (18099 kPa): 1037.5 ± 1.2 kg/m3
mass density (18137 kPa): 1037.5 ± 1.2 kg/m3
mass density (18184 kPa): 1037.6 ± 1.2 kg/m3
mass density (18224 kPa): 1037.5 ± 1.2 kg/m3
mass density (18264 kPa): 1037.7 ± 1.2 kg/m3
mass density (18304 kPa): 1037.6 ± 1.2 kg/m3
mass density (18346 kPa): 1037.8 ± 1.2 kg/m3
mass density (18376 kPa): 1037.8 ± 1.2 kg/m3
mass density (18470 kPa): 1037.7 ± 1.2 kg/m3
mass density (18504 kPa): 1037.6 ± 1.2 kg/m3
mass density (18534 kPa): 1037.7 ± 1.2 kg/m3
mass density (18564 kPa): 1037.8 ± 1.2 kg/m3
mass density (18600 kPa): 1037.9 ± 1.2 kg/m3
mass density (18629 kPa): 1037.8 ± 1.3 kg/m3
mass density (18660 kPa): 1037.9 ± 1.2 kg/m3
mass density (18695 kPa): 1037.8 ± 1.2 kg/m3
mass density (18793 kPa): 1037.9 ± 1.2 kg/m3
mass density (18818 kPa): 1038 ± 1.2 kg/m3
mass density (18855 kPa): 1038 ± 1.2 kg/m3
mass density (18891 kPa): 1038 ± 1.3 kg/m3
mass density (18922 kPa): 1037.9 ± 1.2 kg/m3
mass density (18954 kPa): 1038 ± 1.2 kg/m3
mass density (18986 kPa): 1038.2 ± 1.3 kg/m3
mass density (19023 kPa): 1038 ± 1.3 kg/m3
mass density (19055 kPa): 1038 ± 1.3 kg/m3
mass density (19093 kPa): 1038.2 ± 1.2 kg/m3
mass density (19125 kPa): 1038.1 ± 1.3 kg/m3
mass density (19157 kPa): 1038.1 ± 1.3 kg/m3
mass density (19219 kPa): 1038.2 ± 1.3 kg/m3
mass density (19363 kPa): 1038.3 ± 1.3 kg/m3
mass density (19716 kPa): 1038.6 ± 1.3 kg/m3
mass density (19756 kPa): 1038.7 ± 1.3 kg/m3
mass density (19790 kPa): 1038.6 ± 1.3 kg/m3
mass density (19824 kPa): 1038.7 ± 1.3 kg/m3
mass density (19866 kPa): 1038.6 ± 1.3 kg/m3
mass density (19901 kPa): 1038.7 ± 1.3 kg/m3
mass density (19935 kPa): 1038.8 ± 1.3 kg/m3
mass density (20012 kPa): 1038.8 ± 1.3 kg/m3
mass density (20274 kPa): 1038.9 ± 1.3 kg/m3
mass density (20318 kPa): 1038.9 ± 1.3 kg/m3
mass density (20356 kPa): 1038.9 ± 1.3 kg/m3
mass density (20392 kPa): 1038.9 ± 1.3 kg/m3
mass density (20429 kPa): 1039.1 ± 1.3 kg/m3
mass density (20472 kPa): 1039.1 ± 1.3 kg/m3
mass density (20510 kPa): 1039 ± 1.3 kg/m3
mass density (20629 kPa): 1039.2 ± 1.3 kg/m3
mass density (20667 kPa): 1039.1 ± 1.3 kg/m3
mass density (20706 kPa): 1039.2 ± 1.3 kg/m3
mass density (20751 kPa): 1039.2 ± 1.3 kg/m3
mass density (20789 kPa): 1039.2 ± 1.3 kg/m3
mass density (20828 kPa): 1039.3 ± 1.3 kg/m3
mass density (20869 kPa): 1039.3 ± 1.3 kg/m3
mass density (20908 kPa): 1039.4 ± 1.3 kg/m3
mass density (20954 kPa): 1039.3 ± 1.3 kg/m3
mass density (20992 kPa): 1039.4 ± 1.3 kg/m3
mass density (21039 kPa): 1039.3 ± 1.3 kg/m3
mass density (21079 kPa): 1039.4 ± 1.3 kg/m3
mass density (21117 kPa): 1039.6 ± 1.3 kg/m3
mass density (21156 kPa): 1039.4 ± 1.3 kg/m3
mass density (21204 kPa): 1039.5 ± 1.3 kg/m3
mass density (21243 kPa): 1039.5 ± 1.3 kg/m3
mass density (21283 kPa): 1039.5 ± 1.3 kg/m3
mass density (21333 kPa): 1039.5 ± 1.3 kg/m3
mass density (21374 kPa): 1039.6 ± 1.3 kg/m3
mass density (21416 kPa): 1039.6 ± 1.3 kg/m3
mass density (21465 kPa): 1039.7 ± 1.3 kg/m3
mass density (21508 kPa): 1039.7 ± 1.3 kg/m3
mass density (21593 kPa): 1039.7 ± 1.3 kg/m3
mass density (22639 kPa): 1040.4 ± 1.3 kg/m3
mass density (22677 kPa): 1040.4 ± 1.3 kg/m3
mass density (22723 kPa): 1040.4 ± 1.3 kg/m3
mass density (22761 kPa): 1040.5 ± 1.3 kg/m3
mass density (22807 kPa): 1040.5 ± 1.3 kg/m3
mass density (22845 kPa): 1040.5 ± 1.3 kg/m3
mass density (22884 kPa): 1040.5 ± 1.3 kg/m3
mass density (22932 kPa): 1040.5 ± 1.3 kg/m3
mass density (22972 kPa): 1040.6 ± 1.3 kg/m3
mass density (23010 kPa): 1040.7 ± 1.3 kg/m3
mass density (23051 kPa): 1040.6 ± 1.3 kg/m3
mass density (23098 kPa): 1040.7 ± 1.3 kg/m3
mass density (23137 kPa): 1040.7 ± 1.3 kg/m3
mass density (23185 kPa): 1040.7 ± 1.3 kg/m3
mass density (23224 kPa): 1040.8 ± 1.3 kg/m3
mass density (23265 kPa): 1040.8 ± 1.3 kg/m3
mass density (23314 kPa): 1040.8 ± 1.3 kg/m3
mass density (23354 kPa): 1040.9 ± 1.3 kg/m3
mass density (23396 kPa): 1040.8 ± 1.3 kg/m3
mass density (23445 kPa): 1040.8 ± 1.3 kg/m3
mass density (23487 kPa): 1041 ± 1.3 kg/m3
mass density (23528 kPa): 1040.9 ± 1.3 kg/m3
mass density (23578 kPa): 1041 ± 1.3 kg/m3
mass density (23620 kPa): 1041 ± 1.3 kg/m3
mass density (23662 kPa): 1041.1 ± 1.3 kg/m3
mass density (23705 kPa): 1041 ± 1.3 kg/m3
mass density (23756 kPa): 1041.1 ± 1.3 kg/m3
mass density (23800 kPa): 1041.1 ± 1.3 kg/m3
mass density (24059 kPa): 1041.3 ± 1.3 kg/m3
mass density (24170 kPa): 1041.4 ± 1.3 kg/m3
mass density (24213 kPa): 1041.4 ± 1.3 kg/m3
mass density (24248 kPa): 1041.5 ± 1.3 kg/m3
mass density (24441 kPa): 1041.6 ± 1.3 kg/m3
mass density (24478 kPa): 1041.6 ± 1.3 kg/m3
mass density (24516 kPa): 1041.6 ± 1.3 kg/m3
mass density (24554 kPa): 1041.6 ± 1.3 kg/m3
mass density (24598 kPa): 1041.7 ± 1.3 kg/m3
mass density (24634 kPa): 1041.6 ± 1.3 kg/m3
mass density (24671 kPa): 1041.6 ± 1.3 kg/m3
mass density (24708 kPa): 1041.8 ± 1.3 kg/m3
mass density (24752 kPa): 1041.8 ± 1.3 kg/m3
mass density (24955 kPa): 1041.8 ± 1.3 kg/m3
mass density (24993 kPa): 1041.9 ± 1.3 kg/m3
mass density (25031 kPa): 1041.9 ± 1.3 kg/m3
mass density (25070 kPa): 1041.9 ± 1.3 kg/m3
mass density (25108 kPa): 1041.9 ± 1.3 kg/m3
mass density (25155 kPa): 1042.1 ± 1.3 kg/m3
mass density (25193 kPa): 1042 ± 1.3 kg/m3
mass density (25232 kPa): 1042 ± 1.3 kg/m3
mass density (25278 kPa): 1042 ± 1.3 kg/m3
mass density (25825 kPa): 1042.4 ± 1.3 kg/m3
mass density (25865 kPa): 1042.5 ± 1.3 kg/m3
mass density (25913 kPa): 1042.5 ± 1.3 kg/m3
mass density (25954 kPa): 1042.5 ± 1.3 kg/m3
mass density (25996 kPa): 1042.5 ± 1.3 kg/m3
mass density (26045 kPa): 1042.6 ± 1.3 kg/m3
mass density (26086 kPa): 1042.6 ± 1.3 kg/m3
mass density (26129 kPa): 1042.6 ± 1.3 kg/m3
mass density (26170 kPa): 1042.7 ± 1.3 kg/m3
mass density (26220 kPa): 1042.7 ± 1.3 kg/m3
mass density (26262 kPa): 1042.7 ± 1.3 kg/m3
mass density (26305 kPa): 1042.7 ± 1.3 kg/m3
mass density (26355 kPa): 1042.7 ± 1.3 kg/m3
mass density (26397 kPa): 1042.8 ± 1.3 kg/m3
mass density (26448 kPa): 1042.8 ± 1.3 kg/m3
mass density (26490 kPa): 1042.8 ± 1.3 kg/m3
mass density (26533 kPa): 1042.9 ± 1.3 kg/m3
